# Values of other authors in patent publication US20260116929A1, “ANTI-GRAM-NEGATIVE BACTERIAL COMPOUND” (Murata Manufacturing Co., Ltd., priority 2018, published 2026).
# Tests used:
# Conditions in all cases: background statement
# gram-positive bacteria = tested on: gram-positive bacteria
# gram-negative bacteria = tested on: gram-negative bacteria
# Vibrio parahaemolyticus = tested on: Vibrio parahaemolyticus
compound,measurement,setting,value
Nisin,antimicrobial activity against gram-positive bacteria,gram-positive bacteria,has an antimicrobial activity
same,antimicrobial activity against gram-negative bacteria,gram-negative bacteria,not
same,antimicrobial activity against Vibrio parahaemolyticus,Vibrio parahaemolyticus,no antimicrobial activity
C=C1NC(=O)CC[C@@H](C(=O)O)NC(=O)[C@H](NC(=O)[C@H](CCCCN)NC(=O)[C@@H](N)Cc2c[nH]c3ccccc23)CSC[C@@H](C(=O)N[C@@H]2C(=O)N3CCC[C@H]3C(=O)NCC(=O)N[C@H](C(=O)N[C@H](C(=O)N[C@@H]3C(=O)NCC(=O)N[C@@H](C)C(=O)N[C@@H](CC(C)C)C(=O)N[C@@H](CCC(N)=O)C(=O)N/C(=C/C)C(=O)N[C@H](C(=O)N[C@@H](Cc4ccccc4)C(=O)N[C@@H](CC(C)C)C(=O)N[C@@H](CCC(N)=O)C(=O)N[C@@H]4C(=O)N[C@@H](CC(C)C)C(=O)N[C@H]5C(=O)N[C@@H](CSC4C)C(=O)NC(=O)[C@H](CC(N)=O)N[C@H](C(=O)N[C@@H](CCCCN)C(=O)N[C@H](C(=O)NC(=C)C(=O)N[C@@H](CCCCN)C(=O)O)[C@@H](C)CC)CSC5C)CSC3C)C(C)C)CSC2C)N[C@@H](CC(C)C)C(=O)NC1=O (stereo partly shown) [subtilin],antimicrobial activity against gram-positive bacteria,gram-positive bacteria,have antimicrobial activities
same,antimicrobial activity against gram-negative bacteria,gram-negative bacteria,not
entianin,antimicrobial activity against gram-positive bacteria,gram-positive bacteria,have antimicrobial activities
same,antimicrobial activity against gram-negative bacteria,gram-negative bacteria,not
